Reference: US9120749B2, “Quinoline derivatives and MELK inhibitors containing the same” (ONCOTHERAPY SCIENCE, INC., priority 2010, dated 2015)
Where a name gives a salt, the structure may show the parent alone. Read-outs that look alike come from different tables or passages of the source.

What was measured:
MELK = MELK (Homo sapiens, UniProt Q14680); assay: Kinase assay: MELK activity, phosphorylation of FITC-labeled histone H3 peptide measured by IMAP fluorescence polarization; format: biochemical; details: 50 micro-M ATP, FITC-labeled histone H3 peptide substrate, IMAP fluorescence polarization, read-out: IC50 (μM) (kinase assay)
MELK, sequence (Q14680 whole entry, looked up): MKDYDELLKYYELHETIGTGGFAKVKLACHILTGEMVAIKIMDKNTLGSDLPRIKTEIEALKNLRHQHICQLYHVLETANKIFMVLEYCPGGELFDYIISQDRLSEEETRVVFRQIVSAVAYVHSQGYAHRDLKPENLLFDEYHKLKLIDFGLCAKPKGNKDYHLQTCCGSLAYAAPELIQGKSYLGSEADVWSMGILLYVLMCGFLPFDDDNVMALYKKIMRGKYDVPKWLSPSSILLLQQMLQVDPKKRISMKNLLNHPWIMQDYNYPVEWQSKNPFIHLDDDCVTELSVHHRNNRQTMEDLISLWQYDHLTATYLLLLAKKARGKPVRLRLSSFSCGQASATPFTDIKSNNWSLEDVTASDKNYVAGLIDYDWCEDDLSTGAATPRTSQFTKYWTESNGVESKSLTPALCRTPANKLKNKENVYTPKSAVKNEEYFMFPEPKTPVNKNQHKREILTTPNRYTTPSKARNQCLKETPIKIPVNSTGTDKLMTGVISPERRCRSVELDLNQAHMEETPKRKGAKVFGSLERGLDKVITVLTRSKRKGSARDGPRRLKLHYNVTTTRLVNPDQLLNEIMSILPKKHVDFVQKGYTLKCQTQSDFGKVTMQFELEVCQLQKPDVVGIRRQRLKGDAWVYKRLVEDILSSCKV
Method in brief: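 Substrate is FITC-labeled histone H3 peptide. Compounds come from a 12.5 mM DMSO stock, diluted so assay DMSO is 1%. The stop step adds threefold-volume progressive binding solution, followed by 0.5 h at room temperature and an FP read.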

BT-549 cells = assay: Cell-based assay: anti-proliferative activity, Cell Counting Kit-8, 72 hours (BT-549); details: BT549 cells, MELK-expressing, Cell Counting Kit-8 at 72 hours
Method in brief: (§1)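 IC50 values come from CCK-8 growth measurements taken 72 hours post-treatment of plated cells with test compounds. Expression of MELK across the panel was assessed through immunoblot of unfractionated lysates.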

T47D cells = assay: Cell-based assay: anti-proliferative activity, Cell Counting Kit-8, 72 hours (T47D); details: MELK-expressing, Cell Counting Kit-8 at 72 hours
Method in brief: as §1

A549 cells = assay: Cell-based assay: anti-proliferative activity, Cell Counting Kit-8, 72 hours (A549); details: MELK-expressing, Cell Counting Kit-8 at 72 hours
Method in brief: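 A549 cells seeded in 96-well plates and exposed to candidate inhibitors for 72 hours. Growth measured with Cell Counting Kit-8; IC50 values calculated from the dose response.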

HT-1197 cells = assay: Cell-based assay: anti-proliferative activity, Cell Counting Kit-8, 72 hours (HT-1197, negative control without MELK expression); details: HT1197 cells, no MELK expression (negative control), Cell Counting Kit-8 at 72 hours
Method in brief: as §1

SMILES	IC50 (MELK) [µM]	IC50 (BT-549 cells; Homo sapiens, BT-549, 72 h) [µM]	IC50 (T47D cells; Homo sapiens, T47D, 72 h) [µM]	IC50 (A549 cells; Homo sapiens, A549, 72 h) [µM]	IC50 (HT-1197 cells; Homo sapiens, HT1197, 72 h) [µM]	IC50 (MELK; dihydrochloride) [µM]	IC50 (BT-549 cells; dihydrochloride) [µM]	IC50 (T47D cells; dihydrochloride) [µM]	IC50 (A549 cells; dihydrochloride) [µM]	IC50 (HT-1197 cells; dihydrochloride) [µM]
CN(C)CC1CCN(c2c(C(=O)C3CC3)cnc3ccc(-c4ccc(O)c(Cl)c4)cc23)CC1 [Example 279, [6-(3-Chloro-4-hydroxyphenyl)-4-{4-[(dimethylamino)methyl]piperidin-1-yl}quinolin-3-yl](cyclopropyl)methanone]	0.0046	0.86	0.21	0.3	6.7					
O=C(c1cnc2ccc(-c3ccc(O)c(Cl)c3)cc2c1N[C@H]1CC[C@H](N2CCCC2)CC1)C1CC1 [Example 342, {6-(3-Chloro-4-hydroxyphenyl)-4-[trans-4-(pyrrolidin-1-yl)cyclohexylamino]quinolin-3-yl}(cyclopropyl)methanone]	0.0046	0.68	0.25	0.27	1.8					
COc1cc(-c2ccc3ncc(C(C)=O)c(N[C@H]4CC[C@H](N)CC4)c3c2)cc(Cl)c1O [Example 259, 1-{4-[trans-4-Aminocyclohexylamino]-6-(3-chloro-4-hydroxy-5-methoxyphenyl)quinolin-3-yl}ethanone]	0.0024	0.43	0.057	0.099	2.5					
CC(C1CCN(c2c(C(=O)C3CC3)cnc3ccc(-c4cc(F)c(O)c(F)c4)cc23)CC1)N(C)C (stereo not shown) [Example 181, Cyclopropyl[6-(3,5-difluoro-4-hydroxyphenyl)-4-{4-[1-(dimethylamino)ethyl]piperidin-1-yl}quinolin-3-yl]methanone]	0.011	0.73	0.47	0.7	1.1					
COc1cc(-c2ccc3ncc(C(=O)C4CC4)c(NC4CCN(C)CC4)c3c2)ccc1O [Example 177, Cyclopropyl[6-(4-hydroxy-3-methoxyphenyl)-4-(1-methylpiperidin-4-ylamino)quinolin-3-yl]methanone]	0.026	2.6	0.88	0.83	2.3					
N#Cc1ncc(-c2ccc3ncc(C(=O)C4CC4)c(N[C@H]4CC[C@H](N)CC4)c3c2)cn1 [Example 96, 5-{4-[trans-4-Aminocyclohexylamino]-3-(cyclopropanecarbonyl)quinolin-6-yl}pyrimidine-2-carbonitrile]	0.0024	0.93	0.29	1.3	1.5					
CCN(CC)C1CCC(Nc2c(C(C)=O)cnc3ccc(-c4ccc(O)c(Cl)c4)cc23)CC1 (stereo not shown) [Example 335, 1-{6-(3-Chloro-4-hydroxyphenyl)-4-[4-(diethylamino)cyclohexylamino]quinolin-3-yl}ethanone]	0.021	0.65	0.1	0.29	1.2					
CC(C)C(=O)c1cnc2ccc(-c3cc(Cl)c(O)c(Cl)c3)cc2c1N[C@H]1CC[C@H](N)CC1 [Example 225(b), 1-{4-[trans-4-Aminocyclohexylamino]-6-(3,5-dichloro-4-hydroxyphenyl)quinolin-3-yl}-2-methylpropan-1-one dihydrochloride]						0.0028	0.17	0.048	0.22	1.6
COc1cc(-c2ccc3ncc(C(=O)C4CC4)c(Nc4ccc(CN(C)C)cc4)c3c2)cc(Cl)c1O [Example 339]	0.004	0.49	0.15	0.19	1.9					
N[C@H]1CC[C@H](Nc2c(C(=O)C3CC3)cnc3ccc(-c4ccc(O)cc4)cc23)CC1 [Example 55, {4-[trans-4-Aminocyclohexylamino]-6-(4-hydroxyphenyl)quinolin-3-yl}(cyclopropyl)methanone]	0.021	0.43	0.2	0.48	2					
N[C@H]1CC[C@H](Nc2c(C(=O)C3CC3)cnc3ccc(-c4cc(F)c(O)c(F)c4)cc23)CC1 [Example 156, {4-[trans-4-Aminocyclohexylamino]-6-(3,5-difluoro-4-hydroxyphenyl)quinolin-3-yl}(cyclopropyl)methanone]	0.023	0.16	0.095	0.88	3.1					
CN1CCN(C2CCN(c3c(C(=O)C4CC4)cnc4ccc(-c5cc(F)c(O)c(Cl)c5)cc34)CC2)CC1 [Example 349, {6-(3-Chloro-5-fluoro-4-hydroxyphenyl)-4-[4-(4-methylpiperazin-1-yl)piperidin-1-yl]quinolin-3-yl}(cyclopropyl)methanone]	0.0046	0.91	0.49	0.98	5.8					
CC(C)C(=O)c1cnc2ccc(-c3cc(F)c(O)c(Cl)c3)cc2c1N[C@H]1CC[C@H](N)CC1 [Example 205, 1-{4-[trans-4-Aminocyclohexylamino]-6-(3-chloro-5-fluoro-4-hydroxyphenyl)quinolin-3-yl}-2-methylpropan-1-one]	0.01	0.15	0.066	0.6	2.4					
CC(C)C(=O)c1cnc2ccc(-c3ccc(O)c(Cl)c3)cc2c1N[C@H]1CC[C@H](N)CC1 [Example 219, 1-{4-[trans-4-Aminocyclohexylamino]-6-(3-chloro-4-hydroxyphenyl)quinolin-3-yl}-2-methylpropan-1-one]	0.023	0.25	0.11	0.32	1.2					
COc1cc(-c2ccc3ncc(C(=O)C4CC4)c(NC[C@H]4CC[C@H](N(C)C)CC4)c3c2)cc(Cl)c1O [Example 315]	0.0043	1.4	0.64	0.3	3					
O=C(c1cnc2ccc(-c3ccc(O)c(Cl)c3)cc2c1N1CCC(CN2CCOCC2)CC1)C1CC1 [Example 332, {6-(3-Chloro-4-hydroxyphenyl)-4-[4-(morpholinomethyl)piperidin-1-yl]quinolin-3-yl}(cyclopropyl)methanone]	0.035	1.5	0.67	0.55	10					
COc1cc(-c2ccc3ncc(C(=O)C4CC4)c(NC4CCN(C)CC4)c3c2)cc(Cl)c1O [Example 249]	0.0079	1.3	0.83	0.3	4.4					
CC(C)C(=O)c1cnc2ccc(-c3ccc(C#N)nc3)cc2c1N[C@H]1CC[C@H](N)CC1 [Example 108, 5-{4-[trans-4-Aminocyclohexylamino]-3-isobutyrylquinolin-6-yl}picolinonitrile]	0.03	14	6.1	13	15					
CC(C)CC(=O)c1cnc2ccc(-c3cc(Cl)c(O)c(Cl)c3)cc2c1N[C@H]1CC[C@H](N)CC1 [Example 267, 1-{4-[trans-4-Aminocyclohexylamino]-6-(3,5-dichloro-4-hydroxyphenyl)quinolin-3-yl}-3-methylbutan-1-one dihydrochloride]	0.0022	0.72	0.14	0.38	3					
COc1cc(-c2ccc3ncc(C(=O)C4CC4)c(N[C@H]4CC[C@H](N(C)C)CC4)c3c2)ccc1O [Example 266, Cyclopropyl(4-((trans)-4-(dimethylamino)cyclohexylamino)-6-(4-hydroxy-3-methoxyphenyl)quinolin-3-yl)methanone]	0.0016	0.94	0.29	0.37	3					
COc1cc(-c2ccc3ncc(C(=O)C4CC4)c(N[C@H]4CC[C@H](N5CCCC5)CC4)c3c2)cc(Cl)c1O [Example 343, {6-(3-Chloro-4-hydroxy-5-methoxyphenyl)-4-[trans-4-(pyrrolidin-1-yl)cyclohexylamino]quinolin-3-yl}(cyclopropyl)methanone]	0.0021	0.68	0.33	0.2	3.4					
COc1cc(-c2ccc3ncc(C(=O)C4CC4)c(N4CCC5(CCNC5)CC4)c3c2)cc(Cl)c1O [Example 155, [6-(3-Chloro-4-hydroxy-5-methoxyphenyl)-4-(2,8-diazaspiro[4,5]decan-8-yl)quinolin-3-yl](cyclopropyl)methanone]	0.004	0.79	0.43	0.68	2.4					
N[C@H]1CC[C@H](Nc2c(C(=O)C3CC3)cnc3ccc(-c4cc(F)c(O)c(Cl)c4)cc23)CC1 [Example 179, {4-[trans-4-Aminocyclohexylamino]-6-(3-chloro-5-fluoro-4-hydroxyphenyl)quinolin-3-yl}(cyclopropyl)methanone]	0.0065	0.22	0.11	0.85	5.2					
